Measurements: article PMC12586182 (Frontiers in Oncology, 2025)

Legend:
Assay in all cases: Cell viability assay (ATPlite)
Assay type in all cases: cell-based
HL-60 = conditions: Homo sapiens; HL-60 cell line, 72 hours incubation
Description: (§1) Intracellular ATP content was used as an indirect readout of cell number using the ATPlite 1Step bioluminescence assay (Revvity, Groningen, the Netherlands). Cells were seeded in 384-well plates at an optimized density to ensure unrestricted growth and maximal signal at the end of the experiment. After 24 hours of incubation, the starting cell number was determined by adding ATPlite to each well of a control plate and recording luminescence on an Envision multimode reader (Revvity, Waltham, MA, USA) ([4]). Compounds were diluted in DMSO in √10-fold steps from 10 mmol/L stocks to obtain 9-point dilution series. After further 31.6-fold dilution in 20 mmol/L HEPES (pH 7.4), the dilution series were added in duplicate to the cells in the 384-well plates to determine the effect of the compounds on cell viability. Vehicle-treated controls were included to determine maximal cell proliferation. The final DMSO concentration was 0.4% (v/v) in all wells. After incubation for an additional 72 hours, the ATP content was measured in each well using ATPlite. The luminescent signal in inhibitor-treated wells was normalized to vehicle-treated control wells to determine the percentage viability at each concentration. Cell doublings were determined by relating the cell number of vehicle-treated controls to the starting cell number for each cell line. The viability assay of a cell line was repeated when the cell doubling deviated > 2-fold from the historic doubling as determined by multiple independent experiments. The quality of the complete assay was determined by a parallel test with doxorubicin on two cell lines. IC50 values were calculated by fitting a four-parameter logistic model to the percentage viability values using IDBS XLfit5 (IDBS, Guildford, United Kingdom). All curves were visually inspected and submitted to an F-test as implemented in IDBS XLfit5. Curves with an F-value above 1.5 were invalidated and IC50 values were maximized at the highest concentration.

SK-N-SH = conditions: Homo sapiens; SK-N-SH cell line, 72 hours incubation
Description: as §1

SNU-5 = conditions: Homo sapiens; SNU-5 cell line, 72 hours incubation
Description: as §1

T24 = conditions: Homo sapiens, T-24; T24 cell line, 72 hours incubation
Description: as §1

MDA-MB-231 = conditions: Homo sapiens; MDA-MB-231 cell line, 72 hours incubation
Description: as §1

PFSK-1 = conditions: Homo sapiens; PFSK-1 cell line, 72 hours incubation
Description: as §1

SR = conditions: Homo sapiens; SR cell line, 72 hours incubation
Description: as §1

SK-N-MC = conditions: Homo sapiens; SK-N-MC cell line, 72 hours incubation
Description: as §1

FaDu = conditions: Homo sapiens; FaDu cell line, 72 hours incubation
Description: as §1

MM1.S = conditions: Homo sapiens; MM1.S cell line, 72 hours incubation
Description: as §1

CAL-27 = conditions: Homo sapiens; CAL-27 cell line, 72 hours incubation
Description: as §1

TOV-112D = conditions: Homo sapiens, TOV112D; TOV-112D cell line, 72 hours incubation
Description: as §1

AU565 = conditions: Homo sapiens; AU565 cell line, 72 hours incubation
Description: as §1

COLO 829 = conditions: Homo sapiens; COLO 829 cell line, 72 hours incubation
Description: as §1

HCC4006 = conditions: Homo sapiens; HCC4006 cell line, 72 hours incubation
Description: as §1

SW900 = conditions: Homo sapiens; SW900 cell line, 72 hours incubation
Description: as §1

Hs 746.T = conditions: Homo sapiens, Hs746T; Hs 746.T cell line, 72 hours incubation
Description: as §1

G-361 = conditions: Homo sapiens; G-361 cell line, 72 hours incubation
Description: as §1

MM1.R = conditions: Homo sapiens, MM.1R; MM1.R cell line, 72 hours incubation
Description: as §1

SW1573 = conditions: Homo sapiens; SW1573 cell line, 72 hours incubation
Description: as §1

SW948 = conditions: Homo sapiens; SW948 cell line, 72 hours incubation
Description: as §1

CCRF-CEM = conditions: Homo sapiens; CCRF-CEM cell line, 72 hours incubation
Description: as §1

DU4475 = conditions: Homo sapiens, DU-4475; DU4475 cell line, 72 hours incubation
Description: as §1

SNU-C2B = conditions: Homo sapiens; SNU-C2B cell line, 72 hours incubation
Description: as §1

A-375 = conditions: Homo sapiens; A-375 cell line, 72 hours incubation
Description: as §1

SW872 = conditions: Homo sapiens; SW872 cell line, 72 hours incubation
Description: as §1

DB = conditions: Homo sapiens; DB cell line, 72 hours incubation
Description: as §1

JM-1 = conditions: Homo sapiens, JM1; JM-1 cell line, 72 hours incubation
Description: as §1

SUP-T1 = conditions: Homo sapiens; SUP-T1 cell line, 72 hours incubation
Description: as §1

JAR = conditions: Homo sapiens; JAR cell line, 72 hours incubation
Description: as §1

MG-63 = conditions: Homo sapiens; MG-63 cell line, 72 hours incubation
Description: as §1

SW982 = conditions: Homo sapiens; SW982 cell line, 72 hours incubation
Description: as §1

Which results are given for O=C(c1ccc(Oc2ccccc2)cc1Cl)c1c[nH]c2ncnc(N[C@@H]3CC[C@@H](CO)OC3)c12 [nemtabrutinib]?
IC50 (HL-60): 2.18 µM; IC50 (SK-N-SH): 3.43 µM; IC50 (SNU-5): 8.05 µM; IC50 (T24): 2.79 µM; IC50 (MDA-MB-231): 2.59 µM; IC50 (PFSK-1): 11.3 µM; IC50 (SR): 9.15 µM; IC50 (SK-N-MC): 7.4 µM; IC50 (FaDu): 1.3 µM; IC50 (MM1.S): 5.48 µM; IC50 (CAL-27): 1.29 µM; IC50 (TOV-112D): 2.76 µM; IC50 (AU565): 3.26 µM; IC50 (COLO 829): 1.54 µM; IC50 (HCC4006): 6.17 µM; IC50 (SW900): 2.29 µM; IC50 (Hs 746.T): 11.4 µM; IC50 (G-361): 1.08 µM; IC50 (MM1.R): 8.23 µM; IC50 (SW1573): 6.3 µM; IC50 (SW948): 3.57 µM; IC50 (CCRF-CEM): 13.7 µM; IC50 (DU4475): 1.13 µM; IC50 (SNU-C2B): 2.92 µM; IC50 (A-375): 0.404 µM; IC50 (SW872): 0.666 µM; IC50 (DB): 17.3 µM; IC50 (JM-1): 23.8 µM; IC50 (SUP-T1): 12.1 µM; IC50 (JAR): 18.1 µM; IC50 (MG-63): 5.82 µM; IC50 (SW982): 10.7 µM
